Assay results as given in patent publication EP1161438B1, “6-O-SUBSTITUTED MACROLIDES HAVING ANTIBACTERIAL ACTIVITY” (ABBOTT LABORATORIES, priority 1999, dated 2000).
Values after ≈ are worked out from the molar mass of the structure shown.

Columns and labels:
Experiment in all cases: Agar dilution antibacterial MIC assay
Type in all cases: cell-based
Candida albicans CCH 442 = settings: organism code TT, BHI agar, 35-37 °C, 20 to 24 hours, unit assumed
Experimental: (§1) Representative compounds of the present invention were assayed in vitro for antibacterial activity as follows: Twelve petri dishes containing successive aqueous dilutions of the test compound mixed with 10 mL of sterilized Brain Heart Infusion (BHI) agar (Difco 0418-01-5) were prepared. Each plate was inoculated with 1:100 (or 1:10 for slow-growing strains, such as Micrococcus and Streptococcus) dilutions of up to 32 different microorganisms, using a Steers replicator block. […] In addition, a control plate, using BHI agar containing no test compound, was prepared and incubated at the beginning and end of each test.
(§2) An additional plate containing a compound having known susceptibility patterns for the organisms being tested and belonging to the same antibiotic class as the test compound was also prepared and incubated as a further control, as well as to provide test-to-test comparability.
(§3) After incubation, each plate was visually inspected. The minimum inhibitory concentration (MIC) was defined as the lowest concentration of drug yielding no growth, a slight haze, or sparsely isolated colonies on the inoculum spot as compared to the growth control.

[1] = test system: Enterococcus faecium ATCC 8043; settings: organism code II, BHI agar, 35-37 °C, 20 to 24 hours, unit assumed
Experimental: as §1, §2, §3

Escherichia coli DC-2 = settings: organism code SS, BHI agar, 35-37 °C, 20 to 24 hours, unit assumed
Experimental: as §1, §2, §3

Escherichia coli JUHL = settings: organism code QQ, BHI agar, 35-37 °C, 20 to 24 hours, unit assumed
Experimental: as §1, §2, §3

Escherichia coli SS = settings: organism code RR, BHI agar, 35-37 °C, 20 to 24 hours, unit assumed
Experimental: as §1, §2, §3

[2] = test system: Haemophilis Influenzae DILL AMP R; settings: organism code WW, BHI agar, 35-37 °C, 20 to 24 hours, unit assumed
Experimental: as §1, §2, §3

[3] = test system: Micrococcus luteus ATCC 4698; settings: organism code PP, BHI agar, 35-37 °C, 20 to 24 hours, unit assumed
Experimental: as §1, §2, §3

[4] = test system: Micrococcus luteus ATCC 9341; settings: organism code OO, BHI agar, 35-37 °C, 20 to 24 hours, unit assumed
Experimental: as §1, §2, §3

[5] = test system: Mycobacterium smegmatis ATCC 114; settings: organism code UU, BHI agar, 35-37 °C, 20 to 24 hours, unit assumed
Experimental: as §1, §2, §3

[6] = test system: Nocardia Asteroides ATCC9970; settings: organism code VV, BHI agar, 35-37 °C, 20 to 24 hours, unit assumed
Experimental: as §1, §2, §3

[7] = test system: Staphylococcus aureus 1775; settings: organism code GG, BHI agar, 35-37 °C, 20 to 24 hours, unit assumed
Experimental: as §1, §2, §3

[8] = test system: Staphylococcus aureus A-5278; settings: organism code CC, BHI agar, 35-37 °C, 20 to 24 hours, unit assumed
Experimental: as §1, §2, §3

[9] = test system: Staphylococcus aureus A5177; settings: organism code BB, BHI agar, 35-37 °C, 20 to 24 hours, unit assumed
Experimental: as §1, §2, §3

[10] = test system: Staphylococcus aureus ATCC 6538P; settings: organism code AA, BHI agar, 35-37 °C, 20 to 24 hours, unit assumed
Experimental: as §1, §2, §3

[11] = test system: Staphylococcus aureus CMX 553; settings: organism code FF, BHI agar, 35-37 °C, 20 to 24 hours, unit assumed
Experimental: as §1, §2, §3

[12] = test system: Staphylococcus aureus CMX 642A; settings: organism code DD, BHI agar, 35-37 °C, 20 to 24 hours, unit assumed
Experimental: as §1, §2, §3

[13] = test system: Staphylococcus aureus NCTC10649M; settings: organism code EE, BHI agar, 35-37 °C, 20 to 24 hours, unit assumed
Experimental: as §1, §2, §3

[14] = test system: Staphylococcus epidermidis 3519; settings: organism code HH, BHI agar, 35-37 °C, 20 to 24 hours, unit assumed
Experimental: as §1, §2, §3

[15] = test system: Streptococcus Pneumonia 5649; settings: organism code ZZA, BHI agar, 35-37 °C, 20 to 24 hours, unit assumed
Experimental: as §1, §2, §3

[16] = test system: Streptococcus Pneumonia ATCC6303; settings: organism code XX, BHI agar, 35-37 °C, 20 to 24 hours, unit assumed
Experimental: as §1, §2, §3

[17] = test system: Streptococcus Pneumonia GYR 1171; settings: organism code YY, BHI agar, 35-37 °C, 20 to 24 hours, unit assumed
Experimental: as §1, §2, §3

[18] = test system: Streptococcus agalactiae CMX 508; settings: organism code KK, BHI agar, 35-37 °C, 20 to 24 hours, unit assumed
Experimental: as §1, §2, §3

[19] = test system: Streptococcus bovis A-5169; settings: organism code JJ, BHI agar, 35-37 °C, 20 to 24 hours, unit assumed
Experimental: as §1, §2, §3

[20] = test system: Streptococcus pyogenes 930; settings: organism code MM, BHI agar, 35-37 °C, 20 to 24 hours, unit assumed
Experimental: as §1, §2, §3

[21] = test system: Streptococcus pyogenes EES61; settings: organism code LL, BHI agar, 35-37 °C, 20 to 24 hours, unit assumed
Experimental: as §1, §2, §3

[22] = test system: Streptococcus pyogenes PIU 2548; settings: organism code NN, BHI agar, 35-37 °C, 20 to 24 hours, unit assumed
Experimental: as §1, §2, §3

[23] = test system: Streptococcus Pneumonia 5979; settings: organism code ZZ, BHI agar, 35-37 °C, 20 to 24 hours, unit assumed
Experimental: as §1, §2, §3

Molecule | MIC (Candida albicans CCH 442) [µg/mL] | MIC (Escherichia coli JUHL) [µg/mL] | MIC (Escherichia coli SS) [µg/mL] | MIC [2] [µg/mL] | MIC [3] [µg/mL] | MIC [5] [µg/mL] | MIC [6] [µg/mL] | MIC [7] [µg/mL] | MIC [8] [µg/mL] | MIC [9] [µg/mL] | MIC [10] [µg/mL] | MIC [14] [µg/mL] | MIC [15] [µg/mL] | MIC [16] [µg/mL] | MIC [17] [µg/mL] | MIC [18] [µg/mL] | MIC [19] [µg/mL] | MIC [20] [µg/mL] | MIC [21] [µg/mL] | MIC [22] [µg/mL] | also measured
CC[C@H]1OC(=O)[C@H](C)[C@@H](O[C@H]2C[C@@](C)(OC)[C@@H](O)[C@H](C)O2)[C@H](C)[C@@H](O[C@@H]2O[C@H](C)C[C@H](N(C)C)[C@H]2O)[C@](C)(O)C[C@@H](C)C(=O)[C@H](C)[C@@H](O)[C@]1(C)O [Ery. A standard, Erythromycin A, reference compound] | > 100 | > 100 | 0.78 (≈ 1.06 µM) | 4 (≈ 5.45 µM) | 0.2 (≈ 0.273 µM) | 3.1 (≈ 4.22 µM) | 0.1 (≈ 0.136 µM) | > 100 | > 100 | 3.1 (≈ 4.22 µM) | 0.2 (≈ 0.273 µM) | 0.39 (≈ 0.531 µM) | 16 (≈ 21.8 µM) | 0.06 (≈ 0.0818 µM) | 0.06 (≈ 0.0818 µM) | 0.05 (≈ 0.0681 µM) | 0.02 (≈ 0.0273 µM) | > 100 | 0.05 (≈ 0.0681 µM) | 6.2 (≈ 8.45 µM) | MIC [1]: 0.05 µg/mL (≈ 0.0681 µM); MIC (Escherichia coli DC-2): > 100 µg/mL; MIC [4]: 0.05 µg/mL (≈ 0.0681 µM); MIC [11]: 0.39 µg/mL (≈ 0.531 µM); MIC [12]: 0.39 µg/mL (≈ 0.531 µM); MIC [13]: 0.39 µg/mL (≈ 0.531 µM)
CC[C@H]1OC(=O)[C@H](C)C(=O)[C@H](C)[C@@H](O[C@@H]2O[C@H](C)C[C@H](N(C)C)[C@H]2O)[C@](C)(OCC#Cc2ccc(-c3ccccn3)s2)C[C@@H](C)C(=O)[C@H](C)[C@H]2NC(=O)O[C@@]21C [Example 1, Compound of Formula I: R^b is H, L is -C(O)-, T is -NH-, R is-(CH2)-C≡C-(5-(2-pyridyl)-2-thienyl)] | > 100 | 12.5 | 0.1 | 2 | 0.1 | 0.2 | 0.02 | > 100 | > 100 | 0.05 | 0.05 | 0.1 | 0.25 | 0.03 | 0.03 | 0.02 | 0.01 | 12.5 | 0.02 | 0.1 | MIC [1]: 0.05 µg/mL; MIC (Escherichia coli DC-2): 6.2 µg/mL; MIC [4]: 0.02 µg/mL; MIC [11]: 0.05 µg/mL; MIC [12]: 0.05 µg/mL; MIC [13]: 0.1 µg/mL; MIC [23]: 0.25 µg/mL
CC[C@H]1OC(=O)[C@H](C)C(=O)[C@H](C)[C@@H](O[C@@H]2O[C@H](C)C[C@H](N(C)C)[C@H]2O)[C@](C)(OCC#Cc2ccc(-c3cccnc3)s2)C[C@@H](C)C(=O)[C@H](C)[C@H]2NC(=O)O[C@@]21C [Example 2, Compound of Formula I: R^b is H, L is -C(O)-, T is -NH-, R is-(CH2)-C≡C-(5-(3-pyridyl)-2-thienyl)] | > 100 | 25 | 0.1 | 2 | 0.1 | 0.2 | 0.05 | > 100 | > 100 | 0.05 | 0.05 | 0.05 | 0.12 | 0.03 | 0.03 | ≤ 0.005 | ≤ 0.005 | 3.1 | 0.01 | 0.1 | MIC [1]: 0.05 µg/mL; MIC (Escherichia coli DC-2): 25 µg/mL; MIC [4]: ≤ 0.005 µg/mL; MIC [11]: 0.05 µg/mL; MIC [12]: 0.05 µg/mL; MIC [13]: 0.05 µg/mL; MIC [23]: 0.25 µg/mL
CC[C@H]1OC(=O)[C@H](C)C(=O)[C@H](C)[C@@H](O[C@@H]2O[C@H](C)C[C@H](N(C)C)[C@H]2O)[C@](C)(OCC#Cc2ccc(-c3ccncc3)s2)C[C@@H](C)C(=O)[C@H](C)[C@H]2NC(=O)O[C@@]21C [Example 3, Compound of Formula I: R^b is H, L is -C(O)-, T is -NH-, R is-(CH2)-C≡C-(5-(4-pyridyl)-2-thienyl)] | > 100 | 100 | 0.2 | 2 | 0.05 | 0.039 | 0.01 |  | > 100 | 0.05 | 0.05 | > 100 | 0.125 | ≤ 0.004 | ≤ 0.004 | ≤ 0.05 | ≤ 0.05 | 6.2 | ≤ 0.05 | 0.1 | MIC [12]: 0.1 µg/mL; MIC [23]: 2 µg/mL
CC[C@H]1OC(=O)[C@H](C)C(=O)[C@H](C)[C@@H](O[C@@H]2O[C@H](C)C[C@H](N(C)C)[C@H]2O)[C@](C)(OCC#Cc2ccc(-c3ccccn3)s2)C[C@@H](C)C(=O)[C@H](C)[C@H]2N(N)C(=O)O[C@]12C [Example 5, Compound of Formula I: R^b is H, L is -C(O)-, T is -N(W-R^d)-, W is -NH-, R^d is H, R is-(CH2)-C≡C-(5-(2-pyridyl)-2-thienyl)] | > 100 | 25 | 0.2 | 2 | 0.1 | 1.56 | 0.01 | > 100 | > 100 | 0.05 | 0.05 | 0.1 | 0.25 | 0.015 | 0.015 | ≤ 0.005 | ≤ 0.005 | 50 | 0.01 | 0.39 | MIC [13]: 0.1 µg/mL; MIC [23]: 2 µg/mL
Compound of Formula II: R^b is H, R is -(CH2)-C≡C-(5-(2-pyridyl)-2-thienyl) [Example 4] | > 100 | 25 | 0.39 | 4 | 0.2 | 0.2 | 0.02 | > 100 | > 100 | 0.1 | 0.05 | 0.1 | 0.25 | ≤ 0.004 | ≤ 0.004 | 0.05 | 0.01 | 6.2 | 0.02 | 0.2 | MIC [13]: 0.2 µg/mL; MIC [23]: 4 µg/mL
